Laboratory results: patent US12486251B2 (PHARMABLOCK SCIENCES (NANJING) , INC., priority 2020, dated 2025)

Target: CBP recombinant proteins (Homo sapiens (Human), UniProt Q92793)
Assay: Competitive HTRF assay for affinity to CBP recombinant protein
Type: binding
Conditions: His-tagged CBP 5 nM, biotin-labeled ligand 50 nM, 1% DMSO
Procedure: The affinity of the compounds synthesized in the present patert to the CBP recombinant proteins was determined by competitive HTRF method. His-tagged cyclic adenosine monophosphate response element binding protein (CREB-binding protein, CBP) was expressed in Escherichia coli system and further purified. CBP biotinylated ligands were all self-made. The BL21 star (DE3) competert cells transfected with His-tagged CBP protein genes at N-terminal were cultured at 37° C. for 16 h until the OD value was between 0.6 and 0.8, induced by 0.5 mM of IPTG and cultured overnight. The supernatant of cell lysate was purified by a Ni-ion affinity column and a Superdex75 molecular sieve column sequentially. The purity of resulting CBP proteins was 95%. The fluorescent donor reagent MAb Anti 6HIS—Eu cryptate Gold (Cisbio #61HI2KLA), the receptor reagent Streptavidin-XL665 (#610SAXLA) and the detection buffer (#62SDBRDD) required for HTRF were obtained from CISBIO BIOASSAYS (Codolet, France). Tris(2-carboxyethyl)phosphine hydrochloride (TCEP), sodium chloride, adenosine triphosphate (ATP), Tween-20, dimethylsulfoxide (DMSO), bovine serum albumin (BSA) and HEPES buffer were obtained from SIGMA at the highest level commercially available.
The general procedure of the competitive HTRF assay for the affinity to CBP recombinant proteins is as follows: 0.05% Tween-20 and 1 mM of TCEP were added immediately before the assay, and the assay was performed in a buffer consisting of 0.1 mg/ml BSA, 50 mM of HEPES and 5 mM of NaCl of pH 7.5. 2.5 μL of compound solution in a determination buffer with 4% DMSO and 5 μL of CBP solution in a determination buffer were added to a white low-volume 384-well microtiter plate, incubated at room temperature for 20 min, and then incubated at room temperature for 40 min by adding 2.5 μL of biotin-labeled ligand solution to the determination buffer. The final concentrations of CBP, biotin-labeled ligand and DMSO were 5 nM, 50 nM and 1%, respectively. Then, 5 μL of MAb Anti 6HIS—Eu cryptate Gold and […] of Streptavidin-XL665 in detection buffers from the manufacturer were added to the mixture, and the mixture was incubated for another 60 min. The final concentration of Streptavidin-XL665 was 12.5 nM, and MAb Anti 6HIS—Eu cryptate Gold was diluted according to the final concentration provided by the supplier. The multimode reader Spark from TECAN (Mannedorf, Switzerland) was used to read the plate to detect the homogeneous time-resolved fluorescence intensity of two groups, in which the excitation wavelength was 320 nm and the emission wavelengths were 665 nm and 620 nm. The IC50 value of the inhibitor was obtained by fitting fluorescence intensity ratios at 665 nm/620 nm with respect to the inhibitor concentration in an S-shaped dose-response curve by using Prism 7 (La Jolla, 15 CA).

Chain of CBP recombinant proteins (Q92793 whole entry): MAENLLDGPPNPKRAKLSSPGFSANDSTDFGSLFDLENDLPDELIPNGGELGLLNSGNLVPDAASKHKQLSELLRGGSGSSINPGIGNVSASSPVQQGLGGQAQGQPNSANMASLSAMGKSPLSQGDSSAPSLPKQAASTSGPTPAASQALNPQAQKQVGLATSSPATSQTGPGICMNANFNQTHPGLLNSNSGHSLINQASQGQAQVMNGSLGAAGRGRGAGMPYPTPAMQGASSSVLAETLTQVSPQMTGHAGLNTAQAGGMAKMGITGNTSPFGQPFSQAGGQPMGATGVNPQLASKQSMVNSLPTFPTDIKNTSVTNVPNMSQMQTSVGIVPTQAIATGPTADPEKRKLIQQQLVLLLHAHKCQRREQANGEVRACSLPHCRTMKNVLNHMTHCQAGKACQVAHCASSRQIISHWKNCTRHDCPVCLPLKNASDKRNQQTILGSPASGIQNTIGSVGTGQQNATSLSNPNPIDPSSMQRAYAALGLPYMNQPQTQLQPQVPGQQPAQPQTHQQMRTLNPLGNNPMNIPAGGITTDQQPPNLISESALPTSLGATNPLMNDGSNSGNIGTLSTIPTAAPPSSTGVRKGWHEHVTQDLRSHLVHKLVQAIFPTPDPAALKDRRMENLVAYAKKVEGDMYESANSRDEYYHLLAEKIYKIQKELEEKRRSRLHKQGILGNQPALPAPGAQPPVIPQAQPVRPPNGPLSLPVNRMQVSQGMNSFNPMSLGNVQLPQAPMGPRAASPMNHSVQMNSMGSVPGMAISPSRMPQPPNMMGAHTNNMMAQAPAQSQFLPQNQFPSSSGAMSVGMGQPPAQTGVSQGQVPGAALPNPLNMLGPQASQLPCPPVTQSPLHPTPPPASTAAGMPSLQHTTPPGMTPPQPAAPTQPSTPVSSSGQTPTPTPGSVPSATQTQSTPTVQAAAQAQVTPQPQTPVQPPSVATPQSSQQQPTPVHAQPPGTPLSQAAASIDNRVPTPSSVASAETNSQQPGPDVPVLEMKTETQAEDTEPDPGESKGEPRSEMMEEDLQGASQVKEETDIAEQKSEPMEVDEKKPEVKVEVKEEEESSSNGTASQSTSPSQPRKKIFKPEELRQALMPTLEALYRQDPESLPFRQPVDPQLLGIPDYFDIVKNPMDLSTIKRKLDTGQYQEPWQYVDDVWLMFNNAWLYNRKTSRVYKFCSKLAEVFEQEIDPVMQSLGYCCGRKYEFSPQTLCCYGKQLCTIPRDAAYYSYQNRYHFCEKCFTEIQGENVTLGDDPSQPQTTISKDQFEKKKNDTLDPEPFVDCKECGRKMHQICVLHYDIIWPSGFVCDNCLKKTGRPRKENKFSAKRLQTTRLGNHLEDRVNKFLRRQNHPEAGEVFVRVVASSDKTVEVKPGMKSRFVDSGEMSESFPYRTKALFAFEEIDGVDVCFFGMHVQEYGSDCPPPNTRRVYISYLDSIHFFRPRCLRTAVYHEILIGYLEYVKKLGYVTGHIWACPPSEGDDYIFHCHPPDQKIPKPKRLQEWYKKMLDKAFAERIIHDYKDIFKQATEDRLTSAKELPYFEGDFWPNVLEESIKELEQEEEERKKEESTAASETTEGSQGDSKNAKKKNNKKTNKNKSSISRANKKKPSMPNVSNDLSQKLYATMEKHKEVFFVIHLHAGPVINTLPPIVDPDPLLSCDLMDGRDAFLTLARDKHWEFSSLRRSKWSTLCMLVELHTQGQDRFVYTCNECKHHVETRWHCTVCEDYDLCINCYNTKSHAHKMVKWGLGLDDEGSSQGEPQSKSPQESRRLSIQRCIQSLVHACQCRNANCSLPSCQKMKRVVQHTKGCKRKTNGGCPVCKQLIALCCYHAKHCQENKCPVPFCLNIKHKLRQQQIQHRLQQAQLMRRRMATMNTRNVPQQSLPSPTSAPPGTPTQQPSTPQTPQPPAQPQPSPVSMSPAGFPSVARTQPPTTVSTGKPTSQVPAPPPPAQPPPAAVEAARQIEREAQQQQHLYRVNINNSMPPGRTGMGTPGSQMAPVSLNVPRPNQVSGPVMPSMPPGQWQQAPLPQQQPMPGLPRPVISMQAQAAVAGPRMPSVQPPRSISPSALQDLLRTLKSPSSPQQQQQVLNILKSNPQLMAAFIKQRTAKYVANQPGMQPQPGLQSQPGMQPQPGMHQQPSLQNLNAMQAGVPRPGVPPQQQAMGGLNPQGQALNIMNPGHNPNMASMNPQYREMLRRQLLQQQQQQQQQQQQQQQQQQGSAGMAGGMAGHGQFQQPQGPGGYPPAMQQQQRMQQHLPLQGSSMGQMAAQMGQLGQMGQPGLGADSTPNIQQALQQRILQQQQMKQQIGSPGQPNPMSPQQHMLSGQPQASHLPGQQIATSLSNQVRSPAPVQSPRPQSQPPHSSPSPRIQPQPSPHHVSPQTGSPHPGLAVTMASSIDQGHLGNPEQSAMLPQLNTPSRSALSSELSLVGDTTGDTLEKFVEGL

SMILES | IC50 [nM]
CNC(=O)c1ccc2c(c1)CCCN2c1nc(C(=O)NC)cc2ccccc12 [Example 58, 1-(3-methylcarbamoylisoquinolin-1-yl)-1,2,3,4-tetrahydroquinoline-6-carboxylic acid methylamide] | 100
CNC(=O)c1cc2ccccc2c(N2CCCc3cc(CO)ccc32)n1 [Example 59, 1-(6-hydroxymethyl-3,4-dihydro-2H-quinolin-1-yl)-isoquinoline-3-carboxylic acid methylamide] | 402
CNC(=O)c1cc2ccccc2c(N2CCOc3cc(-c4cnn(C)c4)ccc32)n1 [Example 60, 1-[7-(1-methyl-1H-pyrazol-4-yl)-2,3-dihydro-benzo[1,4]oxazin-4-yl]-isoquinoline-3-carboxylic acid methylamide] | 58
CNC(=O)c1cc2c(c(N3CCCc4cc(-c5cnn(C)c5)c(C(F)F)cc43)n1)CCC2 [Example 61, 1-[7-difluoromethyl-6-(1-methyl-1H-pyrazol-4-yl)-3,4-dihydro-2H-quinolin-1-yl]-6,7-dihydro-5H-[2]pyrazine-3-carboxylic acid methylamide] | 70
CNC(=O)c1cc2c(c(N3CCCc4cc(-c5cnn(C)c5)c(C(F)F)cc43)n1)COC2 [Example 62, 4-(7-(difluoro-methyl)-6-(1-methyl-1H-pyrazol-4-yl)-3,4-dihydroquinolin-1(2H)-yl)-N-methyl-1,3-dihydrofuran [3,4-c]pyridine-6-carboxamide] | 287
CNC(=O)c1cc2ccoc2c(N2CCCc3cc(-c4cnn(C)c4)c(C(F)F)cc32)n1 [Example 63, 7-[7-difluoromethyl-6-(1-methyl-1H-pyrazol-4-yl)-3,4-dihydro-2H-quinolin-1-yl]-furan[2,3-c]pyridine-5-carboxylic acid methylamide] | 136
CNC(=O)c1cc2cccnc2c(-c2ccc3c(c2)c(-c2cnn(C)c2)nn3C)n1 [Example 66, 8-[1-methyl-3-(1-methy 1-1H-pyrazol-4-yl)-1H-indazol-5-yl]-[1,7]naphthyridine-6-carboxylic acid methylamide] | 49

Compounds with a lower IC50, results first:

IC50 [nM] | SMILES
36 | CNC(=O)c1cc2ccccc2c(N2CCCc3cc(-c4cnn(C)c4)c(Cl)cc32)n1 [Example 57, 1-[7-chloro-6-(1-methyl-1H-pyrazol-4-yl)-3,4-dihydro-2H-quinolin-1-yl]-isoquinoline-3-carboxylic acid methylamide]
27 | CNC(=O)c1cc2cc(F)cnc2c(N2CCCc3cc(C4CCN(C(C)=O)CC4)c(C(F)F)cc32)n1 [Example 52, 8-[6-(1-acetylpiperidin-4-yl)-7-difluoro-methyl-3,4-dihydro-2H-quinolin-1-yl]-3-fluoro-[1,7] naphthyridine-6-carboxylic acid methylamide]
24 | CNC(=O)Cn1cc(-c2cc3c(cc2C(F)F)N(c2nc(C(=O)NC)cc4ccccc24)CCC3)cn1 [Example 56, 1-[7-difluoromethyl-6-(1-methylcarbamoylmethyl-1H-pyrazol-4-yl)-3,4-dihydro-2H-quinolin-1-yl]-isoquinoline-3-carboxylic acid methylamide]
15 | CNC(=O)c1cc2cccnc2c(N2CCCc3cc(-c4cnn(CC#N)c4)c(C(F)F)cc32)n1 [Example 55, 8-[6-(1-cyanomethyl-1H-pyrazol-4-yl)-7-difluoromethyl-3,4-dihydro-2H-quinolin-1-yl]-[1,7]naphthyridine-6-carboxylic acid methylamide]
14 | CNC(=O)c1cc2cccnc2c(N2CCCc3cc(-c4cnn(C5CNC5)c4)c(C(F)F)cc32)n1 [Example 53, 8-[6-(1-azetidin-3-yl-1H-pyrazol-4-yl)-7-difluoromethyl-3,4-dihydro-2H-quinolin-1-yl]-[1,7]naphthyridine-6-carboxylic acid methylamide]
14 | CNC(=O)c1cc2ncccc2c(N2CCCc3cc(-c4cnn(C)c4)c(C(F)F)cc32)n1 [Example 64, 5-[7-difluoromethyl-6-(1-methyl-1H-pyrazol-4-yl)-3,4-dihydro-2H-quinolin-1-yl]-[1,6]naphthyridine-7-carboxylic acid methylamide]
12 | CNC(=O)c1cc2cccnc2c(N2CCOc3cc(-c4cnn(C)c4)c(C(F)F)cc32)n1 [Example 65, 8-[6-difluoromethyl-7-(1-methyl-1H-pyrazol-4-yl)-2,3-dihydro-benzo[1,4]oxazin-4-yl]-[1,7]naphthyridine-6-carboxylic acid methylamide]
11 | CNC(=O)c1cc2cccnc2c(N2CCCc3cc(-c4cnn(C5CN(C)C5)c4)c(C(F)F)cc32)n1 [Example 54, 8-{7-difluoromethyl-6-[1-(1-methyl-azetidin-3-yl)-1H-pyrazol-4-yl]-3,4-dihydro-2H-quinolin-1-yl}-[1,7]naphthyridine-6-carboxylic acid methylamide]
